Test results reported in US8324241B2, “Triazolo compounds useful as DGAT1 inhibitors” (Bristol-Myers Squibb Company, priority 2008, dated 2012).

target: T1, recombinant human DGAT1 (Homo sapiens, UniProt O75907); assay: DGAT1 enzyme assay (SPA, membranes from Sf9 insect cells); assay type: biochemical; settings: 300 ng recombinant human DGAT1 membrane (Sf9), 25 μM 2-monooleoylglycerol, 25 μM [3H]-stearoyl-CoA, pH 7.4, 30 min, 25° C.; read-out: DGAT1 Enzyme Assay IC50 (inhibition)
T1 construct: made in house; host or cells: Sf9 insect cells (baculovirus), used as a membrane preparation
T1 sequence (O75907 1-488): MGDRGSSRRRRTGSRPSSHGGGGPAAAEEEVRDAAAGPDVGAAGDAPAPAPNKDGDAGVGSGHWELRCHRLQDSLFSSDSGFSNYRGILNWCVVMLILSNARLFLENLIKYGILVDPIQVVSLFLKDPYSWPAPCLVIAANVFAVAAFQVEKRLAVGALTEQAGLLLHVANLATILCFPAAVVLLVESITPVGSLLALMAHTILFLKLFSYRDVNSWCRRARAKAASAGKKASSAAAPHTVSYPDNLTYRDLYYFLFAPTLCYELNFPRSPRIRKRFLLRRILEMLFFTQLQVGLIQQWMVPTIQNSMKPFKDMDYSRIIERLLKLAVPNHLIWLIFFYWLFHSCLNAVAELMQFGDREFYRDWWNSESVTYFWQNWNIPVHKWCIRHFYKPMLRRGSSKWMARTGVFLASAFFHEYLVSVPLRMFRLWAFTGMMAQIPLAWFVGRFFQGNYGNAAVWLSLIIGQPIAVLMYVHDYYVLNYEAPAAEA
Description: DGAT1 enzyme assays were conducted using membranes isolated from Sf9 insect cells expressing the recombinant human DGAT1 cDNA. The assays were conducted in 384-well plates with total volume of 25 μl at 25° C. In each assay, 300 ng of recombinant human DGAT1 membrane was incubated with 25 μM of 2-monooleoylglycerol and 25 μM of [^3H]-stearoyl-CoA in 100 mM potassium phosphate (pH 7.4) for 30 min with various concentrations of compounds delivered in DMSO. The assay was terminated by the addition of 30 μl of Stopping Solution [50 mM HEPES, 5 mg/mL Yttrium Oxide (YOX) Polylysine SPA beads, 3.33 mg/mL Fraction V BSA, 200 μM Mercuric chloride]. The signal was measured using LEADSEEKER^SM for 5 minutes. To calculate the degree of inhibition, the zero level of enzyme activity (blank) was defined by the above assay using Sf9 cell membrane uninfected with baculovirus and the 100% level of DGAT1 enzyme activity was defined by human DGAT1 assay with the vehicle DMSO. The IC50 values of inhibitors were determined by Excel-fit.

`O=C(O)CNC(=O)c1cccn2c(-c3ccc(NC(=O)Nc4ccccc4OC(F)(F)F)cc3)nnc12` [Example 5] and `O=C(O)CCNC(=O)c1cccn2c(-c3ccc(NC(=O)Nc4ccccc4OC(F)(F)F)cc3)nnc12` [Example 6] are within 1.5-fold of each other in IC50: 0.17 µM for the first, 0.15 µM for the second.

First: O=C(Nc1ccc(-c2nnc3c(C(=O)N[C@@H](Cc4ccccc4)C(=O)O)cccn23)cc1)Nc1ccccc1OC(F)(F)F [Example 11]
Second: CC[C@H](C)[C@H](NC(=O)c1cccn2c(-c3ccc(NC(=O)Nc4ccccc4OC(F)(F)F)cc3)nnc12)C(=O)O [Example 16]
The IC50 of the first is 50-fold higher: 0.15 µM for the first, 0.003 µM for the second. The second is the more potent here.

Compared with `O=C(Nc1ccc(-c2nnc3c(C(=O)N[C@H](C(=O)O)C4CCCCC4)cccn23)cc1)Nc1ccccc1OC(F)(F)F` [Example 14], `COC(=O)Nc1ccc(-c2nnc3c(C(=O)N4CCC[C@H]4C(=O)O)cccn23)cc1` [Example 22, (S)-1-(3-(4-(Methoxycarbonylamino)phenyl)-[1,2,4]triazolo[4,3-a]pyridine-8-carbonyl)pyrrolidine-2-carboxylic acid] is 170-fold higher in IC50: 0.18 µM for the first, 31 µM for the second. The first is the more potent here.

Compared with `CCC(=O)Nc1ccc(-c2nnc3c(C(=O)N[C@H](C(=O)O)C(C)C)cccn23)cc1` [Example 23, (S)-3-Methyl-2-(3-(4-propionamidophenyl)-[1,2,4]triazolo[4,3-a]pyridine-8-carboxamido)butanoic acid], `CC(C)[C@H](NC(=O)c1cccn2c(-c3ccc(Nc4nc5ccc(Cl)cc5s4)cc3)nnc12)C(=O)O` [Example 25, (S)-2-(3-(4-(6-Chlorobenzo[d]thiazol-2-ylamino)phenyl)-[1,2,4-]triazolo[4,3-a]pyridine-8-carboxamido)-3-methylbutanoic acid] is 6100-fold lower in IC50: 43 µM for the first, 0.007 µM for the second.

`CC[C@H](NC(=O)c1cccn2c(-c3ccc(Nc4nc5ccc(Cl)cc5s4)cc3)nnc12)C(=O)O` [Example 41] and `CC(C)[C@H](NC(=O)c1nccn2c(-c3ccc(Nc4nc5ccc(Cl)cc5s4)cc3)nnc12)C(=O)O` [Example 63, (S)-2-(3-(4-(6-Chlorobenzothiazol-2-ylamino)phenyl)-[1,2,4]triazolo[4,3-a]pyrazine-8-carboxamido)-3-methylbutanoic acid] are within 1.5-fold of each other in IC50: 0.005 µM for the first, 0.007 µM for the second.

`C[C@@H](NC(=O)c1cccn2c(-c3ccc(Nc4nccs4)cc3)nnc12)C(=O)O` [Example 47] and `O=C(O)CNC(=O)c1cccn2c(-c3ccc(Nc4nccs4)cc3)nnc12` [Example 53] are within 1.5-fold of each other in IC50: 28 µM for the first, 23 µM for the second.
